Molecules are shown by their SMILES.

Assay [1] deals with T1, human orexin-2 receptor (hOX2R) (Homo sapiens, UniProt O43614).
T1 construct: expressed in transfected cells; host or cells: Chinese hamster ovary (CHO) cells, grown under G418 selection
T1 sequence (O43614 1-444): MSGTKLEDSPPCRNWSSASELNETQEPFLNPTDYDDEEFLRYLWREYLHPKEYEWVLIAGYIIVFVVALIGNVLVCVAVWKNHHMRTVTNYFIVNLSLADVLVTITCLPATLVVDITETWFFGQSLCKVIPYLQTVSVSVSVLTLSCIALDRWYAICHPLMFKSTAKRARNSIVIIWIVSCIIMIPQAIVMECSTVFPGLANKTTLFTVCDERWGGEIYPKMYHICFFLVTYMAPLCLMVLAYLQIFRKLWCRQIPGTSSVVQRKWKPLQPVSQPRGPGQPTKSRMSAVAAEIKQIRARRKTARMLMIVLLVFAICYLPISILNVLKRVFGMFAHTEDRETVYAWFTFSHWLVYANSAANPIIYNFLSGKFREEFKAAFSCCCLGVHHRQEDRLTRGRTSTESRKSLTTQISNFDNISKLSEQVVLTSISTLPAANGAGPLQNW
The experiment in a line: FLIPR Ca2+ Flux Assay, CHO cells expressing hOX2R. The format is cell-based. The conditions noted are these: agonist 70 pM Ala-6,12 orexin-A. A general note: Calcium flux is commonly read through the fluorescence of an indicator in the cells.

Assay [2] has as its target T2, human orexin-1 receptor (hOX1R) (Homo sapiens, UniProt O43613).
T2 construct: expressed in transfected cells; host or cells: Chinese hamster ovary (CHO) cells, grown under G418 selection
T2 sequence (O43613 1-425): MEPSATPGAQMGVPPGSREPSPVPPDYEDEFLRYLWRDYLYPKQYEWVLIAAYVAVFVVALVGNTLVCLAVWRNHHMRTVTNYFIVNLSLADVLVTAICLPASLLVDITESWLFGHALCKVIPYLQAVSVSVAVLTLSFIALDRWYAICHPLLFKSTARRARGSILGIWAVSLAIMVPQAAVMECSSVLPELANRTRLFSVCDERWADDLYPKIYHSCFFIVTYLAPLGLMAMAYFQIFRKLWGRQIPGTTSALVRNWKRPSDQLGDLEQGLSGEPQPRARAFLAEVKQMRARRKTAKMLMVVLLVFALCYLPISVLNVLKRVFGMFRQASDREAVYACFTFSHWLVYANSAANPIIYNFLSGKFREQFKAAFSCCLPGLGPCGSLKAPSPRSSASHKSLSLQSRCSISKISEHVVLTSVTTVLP
The experiment in a line: FLIPR Ca2+ Flux Assay, CHO cells expressing hOX1R. The format is cell-based. The conditions noted are these: agonist 70 pM Ala-6,12 orexin-A.

A word on the IC50: it is the concentration at which inhibition is half-maximal. A higher IC50 goes with weaker potency. As for `C[C@@H]1CC[C@@H](Oc2nccc(C3CC3)c2CO)CN1C(=O)c1ccccc1-n1nccn1` [Example 42, (4-cyclopropyl-2-{[(3R,6R)-6-methyl-1-{[2-(2H-1,2,3-triazol-2-yl)phenyl]carbonyl}piperidin-3-yl]oxy}pyridin-3-yl) methanol], the results for the IC50 in assay [1] and in assay [2] were 17 nM and 107 nM, respectively.

As to `CC(C)c1ccnc(O[C@@H]2CC[C@@H](C)N(C(=O)c3ccccc3-n3nccn3)C2)c1CO` [Example 43, [4-(1-methylethyl)-2-{[(3R,6R)-6-methyl-1-{[2-(2H-1,2,3-triazol-2-yl)phenyl]carbonyl}piperidin-3-yl]oxy}pyridin-3-yl]methanol], the IC50 amounted to 23 nM in assay [1] and 80 nM in assay [2].

Consider `C[C@@H]1CC[C@@H](Oc2nccc(C(F)(F)F)c2CO)CN1C(=O)c1ccccc1-n1nccn1` [Example 44, [2-{[(3R,6R)-6-methyl-1-{[2-(2H-1,2,3-triazol-2-yl)phenyl]carbonyl}piperidin-3-yl]oxy}-4-(trifluoromethyl)pyridin-3-yl] methanol], for which the IC50 was 18 nM in assay [1] and 81 nM in assay [2].

For `Cc1ccc(CO)c(O[C@@H]2CC[C@@H](C)N(C(=O)c3ccccc3-n3nccn3)C2)n1` [Example 45, (6-Methyl-2-{[(3R,6R)-6-methyl-1-{[2-(2H-1,2,3-triazol-2-yl)phenyl]carbonyl}piperidin-3-yl]oxy}pyridin-3-yl)methanol], the IC50 turned out to be 29 nM in assay [1] and 95 nM in assay [2].

Turning to `COc1ccnc(O[C@@H]2CC[C@@H](C)N(C(=O)c3ccccc3-n3nccn3)C2)c1CO` [Example 46, (4-Methoxy-2-{[(3R,6R)-6-methyl-1-{[2-(2H-1,2,3-triazol-2-yl)phenyl]carbonyl}piperidin-3-yl]oxy}pyridin-3-yl)methanol], the IC50 was found to be 34 nM in assay [1] and 1170 nM in assay [2].

Take `COc1ccnc(O[C@@H]2CC[C@@H](C)N(C(=O)c3cccc(F)c3-n3nccn3)C2)c1CO` [Example 47, (3-Fluoro-2-(2H-1,2,3-triazol-2-yl)phenyl)((2R,5R)-5-((3-(hydroxymethyl)-4-methoxypyridin-2-yl)oxy)-2-methylpiperidin-1-yl)methanone]: the IC50 came to 81 nM in assay [1] and 1990 nM in assay [2].

Consider `C[C@@H]1CC[C@@H](Oc2ncccc2C(C)(C)O)CN1C(=O)c1ccccc1-n1ncnn1` [Example 48, 2-(2-{[(3R,6R)-6-Methyl-1-{[2-(2H-tetrazol-2-yl)phenyl]carbonyl}piperidin-3-yl]oxy}pyridin-3-yl)propan-2-ol], for which the results for the IC50 in assay [1] and in assay [2] were 21 nM and 156 nM, respectively.

On to `COc1ccc(C(=O)N2C[C@H](Oc3ncccc3CO)CC[C@H]2C)c(-n2nccn2)n1` [Example 49, (2-{[(3R,6R)-1-{[6-Methoxy-2-(2H-1,2,3-triazol-2-yl)pyridin-3-yl]carbonyl}-6-methylpiperidin-3-yl]oxy}pyridin-3-yl)methanol], for which the IC50 in assay [1] came to 588 nM; in assay [2], 10000 nM.

In the case of `C[C@@H]1CC[C@@H](Oc2ncccc2CO)CN1C(=O)c1ccccc1-n1ncnn1` [Example 50, (2-{[(3R,6R)-6-methyl-1-{[2-(2H-tetrazol-2-yl)phenyl]carbonyl}piperidin-3-yl]oxy}pyridin-3-yl)methanol], the IC50 in assay [1] came to 289 nM; in assay [2] it was 1840 nM.
